The compounds below were run on T.b. brucei (strain 427) bloodstream form parasites (assay: T.b. brucei single concentration screen (10 μM)). Conditions: Trypanosoma brucei, read-out: T.b.brucei % viability (10 µM).

Compound | viability at 10 µM [%]
Nc1c2c(nc3sc4c(c13)CCCC4)CCCC2 [MMV676588, Nc1c2CCCCc2nc3sc4CCCCc4c13] | 99
O=C(CCC1CCCCC1)Nc1cccc(-c2nnc(-c3ccco3)o2)c1 [MMV676589, O=C(CCC1CCCCC1)Nc2cccc(c2)c3oc(nn3)c4occc4] | 95
CCCn1nnc(NC(=O)COc2ccc(C3CCCCC3)cc2)n1 [MMV676597, CCCn1nnc(NC(=O)COc2ccc(cc2)C3CCCCC3)n1] | 71
CC(C)(C)n1nc(Cc2cccc3ccccc23)c2c(N)ncnc21 [MMV676599, CC(C)(C)n1nc(Cc2cccc3ccccc23)c4c(N)ncnc14] | 87
CC1COC2(CCN(c3nc(=O)c4cc(C(F)(F)F)cc([N+](=O)[O-])c4s3)CC2)O1 (stereo not shown) [MMV676603, CC1COC2(CCN(CC2)C3=NC(=O)c4cc(cc(c4S3)[N+](=O)[O-])C(F)(F)F)O1] | 82
C[C@]1(O)C[C@@H](c2nc(-c3ccc4ccc(-c5ccccc5)nc4c3)c3c(N)nccn32)C1 [MMV676605, C[C@@]1(O)C[C@@H](C1)c2nc(c3ccc4ccc(nc4c3)c5ccccc5)c6c(N)nccn26] | 67
O=C(c1ccc(NCCO)cc1)C1C[C@H]1c1ccc(Cl)cc1 (stereo partly shown) [MMV676877, OCCNc1ccc(cc1)C(=O)C2C[C@H]2c3ccc(Cl)cc3] | 102
CCn1cnc2c(Nc3cc(F)cc(F)c3)nc(C#N)nc21 [MMV676881, CCn1cnc2c(Nc3cc(F)cc(F)c3)nc(nc12)C#N] | 70
NC(=O)c1cc(-c2ccsc2)ccc1OCCOc1ccccc1 [MMV687138, NC(=O)c1cc(ccc1OCCOc2ccccc2)c3ccsc3] | 104
CCCCS(=O)(=O)Nc1ccc2cnn(C)c2c1 [MMV687145, CCCCS(=O)(=O)Nc1ccc2cnn(C)c2c1] | 95
Cc1cc(C)c2cc(C(=O)NC3CCCCCCC3)[nH]c2c1 [MMV687146, Cc1cc(C)c2cc([nH]c2c1)C(=O)NC3CCCCCCC3] | 92
COc1ccc(Cn2cnc3c(-c4ccco4)nc(Cl)nc32)cc1 [MMV687170, COc1ccc(Cn2cnc3c(nc(Cl)nc23)c4occc4)cc1] | 97
O=C(C1CCN(c2cc(-n3cccc3)ncn2)CC1)N1CCc2ccccc2C1 [MMV687172, O=C(C1CCN(CC1)c2cc(ncn2)n3cccc3)N4CCc5ccccc5C4] | 93
CCc1ccc([C@@H]2C[C@H](C(F)(F)F)n3ncc(C(=O)NCc4ccc(OC)cc4)c3N2)cc1 [MMV687180, CCc1ccc(cc1)[C@@H]2C[C@@H](n3ncc(C(=O)NCc4ccc(OC)cc4)c3N2)C(F)(F)F] | 57
COc1ccc2nc(C)cc(OCC(=O)Nc3ccccc3OC)c2c1 [MMV687188, COc1ccc2nc(C)cc(OCC(=O)Nc3ccccc3OC)c2c1] | 92
COc1ccc2nc(C)cc(OCC(=O)NCc3ccccc3)c2c1 [MMV687189, COc1ccc2nc(C)cc(OCC(=O)NCc3ccccc3)c2c1] | 92
CC(C)(C(=O)Nc1ccc(F)cc1)n1cc(-c2ccccc2F)cn1 [MMV687239, CC(C)(C(=O)Nc1ccc(F)cc1)n2cc(cn2)c3ccccc3F] | 89
NC(=O)c1cc(Br)ccc1OCCOc1ccccc1 [MMV687243, NC(=O)c1cc(Br)ccc1OCCOc2ccccc2] | 92
CN1CCN(S(=O)(=O)c2ccc(-c3ccc4c(Nc5ccc6nn[nH]c6c5)ccnc4c3)cc2)CC1 [MMV687246, CN1CCN(CC1)S(=O)(=O)c2ccc(cc2)c3ccc4c(Nc5ccc6nn[nH]c6c5)ccnc4c3] | 106
Cn1c(=O)c2c(S(C)(=O)=O)snc2n(C)c1=O [MMV687251, CN1C(=O)N(C)c2nsc(c2C1=O)S(=O)(=O)C] | 98
CCCCc1ccc(C(=O)Nc2nccc3ccccc23)nc1 [MMV687254, CCCCc1ccc(nc1)C(=O)Nc2nccc3ccccc23] | 81
CCc1nc2ccc(Cl)cn2c1C(=O)NCc1ccc(N2CCC(c3ccc(OC(F)(F)F)cc3)CC2)cc1 [MMV687696, CCc1nc2ccc(Cl)cn2c1C(=O)NCc3ccc(cc3)N4CCC(CC4)c5ccc(OC(F)(F)F)cc5] | 99
O=C(NCc1cc(Cl)cc(Cl)c1)c1c(C(F)(F)F)nc2ccccn12 [MMV687699, FC(F)(F)c1nc2ccccn2c1C(=O)NCc3cc(Cl)cc(Cl)c3] | 99
Nc1ncnc2c1ncn2[C@@H]1O[C@H](COS(=O)(=O)NC(=O)c2ccccc2O)[C@@H](O)[C@H]1O [MMV687700, Nc1ncnc2c1ncn2[C@@H]3O[C@H](COS(=O)(=O)NC(=O)c4ccccc4O)[C@@H](O)[C@H]3O] | 104
O=C1O[C@@H](CO)CN1c1cc(F)c(C2=CCN(Cc3ccccc3)CC2)c(F)c1 [MMV687729, OC[C@H]1CN(C(=O)O1)c2cc(F)c(C3=CCN(Cc4ccccc4)CC3)c(F)c2] | 101
CCCCOC(=O)Nc1cc2nc(C3CCCCC3)[nH]c2cc1N1CCCC1 [MMV687730, CCCCOC(=O)Nc1cc2nc([nH]c2cc1N3CCCC3)C4CCCCC4] | 61

Compound | viability at 10 µM [%]
Cc1cc(OCC(=O)NCc2ccccc2)c2cc(Br)ccc2n1 [MMV687747, Cc1cc(OCC(=O)NCc2ccccc2)c3cc(Br)ccc3n1] | 89
c1ccc(C[C@@H]2CN(c3nccc(Oc4ccc(-n5ccnc5)cc4)n3)CCN2)cc1 [MMV687749, C([C@@H]1CN(CCN1)c2nccc(Oc3ccc(cc3)n4ccnc4)n2)c5ccccc5] | 60
CC1(C)OB(O)c2ccc(C3=NOC(c4cc(Cl)c(F)c(Cl)c4)(C(F)(F)F)C3)cc21 (stereo not shown) [MMV687775, CC1(C)OB(O)c2ccc(cc12)C3=NOC(C3)(c4cc(Cl)c(F)c(Cl)c4)C(F)(F)F] | 33
CC1(C)Cc2c(c(N3CCOCC3)nc3snc(Br)c23)CO1 [MMV687794, CC1(C)Cc2c(CO1)c(nc3snc(Br)c23)N4CCOCC4] | 50
O=C1O[C@@H](COc2ccon2)CN1c1cc(F)c(C2=CCN(Cc3ccccc3)CC2)c(F)c1 [MMV687813, Fc1cc(cc(F)c1C2=CCN(Cc3ccccc3)CC2)N4C[C@H](COc5ccon5)OC4=O] | 113
Cc1cccc(-c2nc(Nc3ccncn3)c3sccc3n2)n1 [MMV688122, Cc1cccc(n1)c2nc(Nc3ccncn3)c4sccc4n2] | 85
CCc1ccc(S(=O)(=O)Nc2cc(CN3CCN(CCC(C)C)CC3)ccc2C)cc1 [MMV688124, CCc1ccc(cc1)S(=O)(=O)Nc2cc(CN3CCN(CCC(C)C)CC3)ccc2C] | 84
CCCc1ccc(S(=O)(=O)Nc2ccc(CN3CCN(CC4CC4)CC3)cc2)cc1 [MMV688125, CCCc1ccc(cc1)S(=O)(=O)Nc2ccc(CN3CCN(CC4CC4)CC3)cc2] | 72
c1ccc(Oc2ccc(-c3cncc(-c4ccc5[nH]ccc5c4)n3)cc2)cc1 [MMV688178, O(c1ccccc1)c1ccc(cc1)-c1cncc(n1)-c1ccc2[nH]ccc2c1] | 101
CC1(COc2ccc(N3CCC(Oc4ccc(OC(F)(F)F)cc4)CC3)cc2)Cn2cc([N+](=O)[O-])nc2O1 (stereo not shown) [MMV688262, CC1(COc2ccc(cc2)N3CCC(CC3)Oc4ccc(OC(F)(F)F)cc4)Cn5cc(nc5O1)N(=O)=O] | 74
COc1ccc(-c2cnc3cnc(-c4cccc(OC(C)C)c4)cn23)cc1 [MMV688270, COc1ccc(cc1)-c1cnc2cnc(cn12)-c1cccc(OC(C)C)c1] | 99
Nc1ccc2ncnc(Nc3ccc(OCc4cccc(F)c4)c(Cl)c3)c2c1 [MMV688273, Nc1ccc2ncnc(Nc3ccc(OCc4cccc(F)c4)c(Cl)c3)c2c1] | 56
O=C(CN1CCOCC1)Nc1ccc2ncnc(Nc3ccc(OCc4cccc(F)c4)c(Cl)c3)c2c1 [MMV688274, Fc1cccc(COc2ccc(Nc3ncnc4ccc(NC(=O)CN5CCOCC5)cc34)cc2Cl)c1] | 63
COc1ccc(-c2nnc3ccc(-c4cccc(C(C)C)c4)cn23)cc1OC [MMV688313, COc1ccc(cc1OC)-c1nnc2ccc(cn12)-c1cccc(c1)C(C)C] | 92
CC(=O)NCC1CN(c2ccc(-c3ccc(CNCc4cn[nH]n4)cc3)c(F)c2)C(=O)O1 (stereo not shown) [MMV688327, CC(=O)NCC1CN(C(=O)O1)c2ccc(c(F)c2)c3ccc(CNCc4cn[nH]n4)cc3] | 68
CC(=O)N1CCN(c2ccc(Oc3ccc(Cl)cc3O)cc2)CC1 [MMV688330, CC(=O)N1CCN(CC1)c1ccc(Oc2ccc(Cl)cc2O)cc1] | 103
Nc1nc(N)c2c3c(sc2n1)CN(Cc1ccccc1)CC3 [MMV688345, Nc1nc(N)c2c3CCN(Cc4ccccc4)Cc3sc2n1] | 110
COC(=O)c1ccc(F)cc1NS(=O)(=O)c1cccc(-c2cnn(Cc3ccccc3)c2)c1 [MMV688350, COC(=O)c1ccc(F)cc1NS(=O)(=O)c2cccc(c2)c3cnn(Cc4ccccc4)c3] | 85
O=C1[C@@H](Oc2ccccc2)[C@@H](c2ccc(Cl)cc2)N1CCn1cnc2c(NCc3ccccc3)ncnc21 [MMV688352, Clc1ccc(cc1)[C@@H]2[C@H](Oc3ccccc3)C(=O)N2CCn4cnc5c(NCc6ccccc6)ncnc45] | 107
c1cc(C2=NCCN2)cc(-c2cc(-c3ccc(C4=NCCN4)cc3)no2)c1 [MMV688361, C1CN=C(N1)c2ccc(cc2)c3cc(on3)c4cccc(c4)C5=NCCN5] | 18
COc1cc(C2=NCCN2)cc2cc(-c3ccc(C4=NCCN4)cc3)oc12 [MMV688362, COc1cc(cc2cc(oc12)c3ccc(cc3)C4=NCCN4)C5=NCCN5] | 35
CC(C)(C)OC(=O)N1CCC(Cn2nc(-c3cnc4ccccc4c3)c3c(N)ncnc32)CC1 [MMV688364, CC(C)(C)OC(=O)N1CCC(Cn2nc(-c3cnc4ccccc4c3)c3c(N)ncnc23)CC1] | 102
COc1cc(C2=NCCN2)ccc1-c1cn(-c2cccc(C3=NCCN3)c2)nn1 [MMV688407, COc1cc(ccc1c2cn(nn2)c3cccc(c3)C4=NCCN4)C5=NCCN5] | 87
CC1=Nc2ccc(Cl)cc2C(c2ccccc2)N1CCNC(=O)CN(C)C (stereo not shown) [MMV688410, CN(C)CC(=O)NCCN1C(c2ccccc2)c3cc(Cl)ccc3N=C1C] | 77
Nc1ncnc2c1c(-c1cnc3ccccc3c1)nn2CC1CCNCC1 [MMV688411, Nc1ncnc2n(CC3CCNCC3)nc(-c3cnc4ccccc4c3)c12] | 104
CO[C@@H]1CN(c2ccc(C#CC3(O)CN4CCC3CC4)c(Cc3ccccc3)n2)C[C@H]1O (stereo partly shown) [MMV688415, CO[C@@H]1CN(C[C@H]1O)c2ccc(C#CC3(O)CN4CCC3CC4)c(Cc5ccccc5)n2] | 99
